From US12612409B2, “Pyrrolopyrimidines as CFTR potentiators” (Cystic Fibrosis Foundation, priority 2016, dated 2026)

Columns and labels:
[1] = biological target: T1, CFTR in F508del/F508del primary CF hBE cells (Homo sapiens, UniProt P13569, DEL508-508); experiment: Ussing chamber electrophysiology assay of CFTR potentiation in F508del/F508del CF bronchial epithelial cells (27° C.); type: cell-based
T1 construct: Primary cystic fibrosis human bronchial epithelial (CF hBE) cells were expanded and cultured; endogenous in cells; host or cells: primary CF human bronchial epithelial cells, genotype F508del/F508del
Method in brief: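 Well-differentiated primary CF hBE cells (>30 days air/liquid interface) in Ussing chambers, HEPES saline both sides, voltage clamped to zero. Amiloride 30 uM, forskolin 10 uM, four rising compound concentrations, then CFTRinh-172 20 uM added at 20-25 min intervals. Short-circuit current scaled to DMSO (0%) and a positive control potentiator maximum (100%).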

[2] = biological target: T2, recombinant F508del V470 CFTR in Fischer rat thyroid (FRT) cells (Homo sapiens, UniProt P13569, DEL508-508); experiment: FRT ion flux assay of F508del CFTR potentiation; type: cell-based; conditions: FRT cells expressing F508del V470 CFTR, forskolin 20 uM, 27° C. pre-incubation
T2 construct: expressed in transfected cells
Method in brief: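 FRT cells co-expressing F508del V470 CFTR and halide-sensitive YFP, temperature-corrected at 27° C for 16-24 h, then treated 30 min with compound plus 20 uM forskolin. Iodide addition quenches YFP, read after ~21 s; ratio scaled to DMSO (0%) and positive control potentiator (100%).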

T1 sequence (P13569 with tags, fused parts or gaps DEL508-508): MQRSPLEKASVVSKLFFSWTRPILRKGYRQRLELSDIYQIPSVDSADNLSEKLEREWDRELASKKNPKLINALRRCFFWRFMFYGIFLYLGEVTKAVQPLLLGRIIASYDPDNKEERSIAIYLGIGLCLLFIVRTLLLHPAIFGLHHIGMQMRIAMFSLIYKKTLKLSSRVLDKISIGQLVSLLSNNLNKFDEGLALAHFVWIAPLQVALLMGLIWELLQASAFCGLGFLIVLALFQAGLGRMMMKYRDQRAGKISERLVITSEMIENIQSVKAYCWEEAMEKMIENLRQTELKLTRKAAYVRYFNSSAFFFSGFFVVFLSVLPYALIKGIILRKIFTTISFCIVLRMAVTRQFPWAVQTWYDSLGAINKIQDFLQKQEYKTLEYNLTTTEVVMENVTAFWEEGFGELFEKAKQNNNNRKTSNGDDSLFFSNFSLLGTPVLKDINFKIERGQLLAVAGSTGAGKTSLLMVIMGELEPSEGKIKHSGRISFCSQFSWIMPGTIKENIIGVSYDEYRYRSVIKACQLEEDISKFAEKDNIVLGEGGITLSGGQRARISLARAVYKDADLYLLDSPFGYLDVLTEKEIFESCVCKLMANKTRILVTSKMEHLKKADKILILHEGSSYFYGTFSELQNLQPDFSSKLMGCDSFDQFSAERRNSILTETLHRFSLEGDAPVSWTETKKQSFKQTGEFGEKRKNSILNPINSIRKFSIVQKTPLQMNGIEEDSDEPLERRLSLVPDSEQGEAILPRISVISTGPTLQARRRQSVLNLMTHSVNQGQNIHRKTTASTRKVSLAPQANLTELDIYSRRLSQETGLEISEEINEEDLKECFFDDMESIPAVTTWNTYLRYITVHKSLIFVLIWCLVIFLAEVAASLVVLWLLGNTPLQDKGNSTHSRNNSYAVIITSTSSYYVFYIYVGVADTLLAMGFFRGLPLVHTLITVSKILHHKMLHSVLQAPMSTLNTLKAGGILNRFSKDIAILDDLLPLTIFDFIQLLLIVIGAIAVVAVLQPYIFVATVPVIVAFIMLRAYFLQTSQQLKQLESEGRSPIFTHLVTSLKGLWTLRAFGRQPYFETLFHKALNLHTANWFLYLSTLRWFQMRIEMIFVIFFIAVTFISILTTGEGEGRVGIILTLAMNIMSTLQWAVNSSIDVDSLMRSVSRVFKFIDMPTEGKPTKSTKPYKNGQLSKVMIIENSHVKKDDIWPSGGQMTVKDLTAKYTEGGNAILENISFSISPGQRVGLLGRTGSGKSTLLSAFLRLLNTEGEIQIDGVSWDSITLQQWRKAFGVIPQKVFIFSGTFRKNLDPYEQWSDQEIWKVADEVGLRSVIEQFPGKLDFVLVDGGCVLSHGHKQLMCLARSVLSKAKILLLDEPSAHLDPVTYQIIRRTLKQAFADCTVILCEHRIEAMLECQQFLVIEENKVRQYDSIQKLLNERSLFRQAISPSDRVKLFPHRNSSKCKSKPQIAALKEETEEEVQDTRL
T2 sequence (P13569 with tags, fused parts or gaps DEL508-508): as above

EC50 [1] [nM]	EC50 [2] [nM]	Compound
136	1120	CC(c1cc(-c2cccc(F)c2)no1)n1cc(-c2ccc(Cl)cc2)c2c(N)ncnc21 (centres unmarked) [Example 267, 5-(4-Chlorophenyl)-7-{1-[3-(3-fluorophenyl)-1,2-oxazol-5-yl]ethyl}-7H-pyrrolo[2,3-d]pyrimidin-4-amine]
35.9	73.8	CC(c1cn(-c2ccccc2F)nn1)n1cc(-c2ccc(OC(F)F)cc2)c2c(N)ncnc21 (centres unmarked) [Example 89, 5-[4-(Difluoromethoxy)phenyl]-7-{1-[1-(2-fluorophenyl)-1H-1,2,3-triazol-4-yl]ethyl}-7H-pyrrolo[2,3-d]pyrimidin-4-amine]
142	54.6	CC(c1cnc(-c2ccccc2F)[nH]1)n1cc(-c2cnc(N(C)C)nc2)c2c(N)ncnc21 (centres unmarked) [Example 67, 5-[2-(Dimethylamino)pyrimidin-5-yl]-7-{1-[2-(2-fluorophenyl)-1H-imidazol-5-yl]ethyl}-7H-pyrrolo[2,3-d]pyrimidin-4-amine]
110	197	COc1ccccc1-c1cc(C(C)n2cc(-c3ccc(Cl)cc3)c3c(N)ncnc32)on1 (centres unmarked) [Example 260, 5-(4-Chlorophenyl)-7-{1-[3-(2-methoxyphenyl)-1,2-oxazol-5-yl]ethyl}-7H-pyrrolo[2,3-d]pyrimidin-4-amine]
80.3	80	CC(c1cnc(-c2ccccc2F)[nH]1)n1cc(-c2ccc(C(F)(F)F)nc2)c2c(N)ncnc21 (centres unmarked) [Example 64, 7-{1-[2-(2-Fluorophenyl)-1H-imidazol-5-yl]ethyl}-5-[6-(trifluoromethyl)pyridin-3-yl]-7H-pyrrolo[2,3-d]pyrimidin-4-amine]
187	677	CC(c1cn(-c2ccccc2F)nn1)n1cc(-c2ccc(OC3CC3)nc2)c2c(N)ncnc21 (single isomer, unassigned; enantiomer 1) [Example 119, (−) 5-[6-(Cyclopropyloxy)pyridin-3-yl]-7-{1-[1-(2-fluorophenyl)-1H-1,2,3-triazol-4-yl]ethyl}-7H-pyrrolo[2,3-d]pyrimidin-4-amine, enantiomer 1]
5.48	33.4	CC(c1cn(-c2ccccc2F)nn1)n1cc(-c2ccc(OC3CC3)nc2)c2c(N)ncnc21 (single isomer, unassigned; enantiomer 2) [Example 120, (+) 5-[6-(Cyclopropyloxy)pyridin-3-yl]-7-{1-[1-(2-fluorophenyl)-1H-1,2,3-triazol-4-yl]ethyl}-7H-pyrrolo[2,3-d]pyrimidin-4-amine, enantiomer 2]
147	343	CC(c1cc(-c2ccccc2F)no1)n1cc(-c2ccc(Cl)cc2)c2c(N)ncnc21 (centres unmarked) [Example 258, 5-(4-Chlorophenyl)-7-{1-[3-(2-fluorophenyl)-1,2-oxazol-5-yl]ethyl}-7H-pyrrolo[2,3-d]pyrimidin-4-amine]
60.2	313	Nc1ncnc2c1c(-c1ccc(Cl)cc1)cn2Cc1cnn(-c2ccccc2F)c1 [Example 262, 5-(4-Chlorophenyl)-7-{[1-(2-fluorophenyl)-1H-pyrazol-4-yl]methyl}-7H-pyrrolo[2,3-d]pyrimidin-4-amine]
38	99.6	CCOc1ccc(-c2cn(Cc3cn(-c4ccccc4F)nn3)c3ncnc(N)c23)cc1F [Example 75, 5-(4-Ethoxy-3-fluorophenyl)-7-{[1-(2-fluorophenyl)-1H-1,2,3-triazol-4-yl]methyl}-7H-pyrrolo[2,3-d]pyrimidin-4-amine]
25.9	109	CCC(c1cn(-c2ccccc2F)nn1)n1cc(-c2ccc(Cl)cc2)c2c(N)ncnc21 (centres unmarked) [Example 211, 5-(4-Chlorophenyl)-7-{1-[1-(2-fluorophenyl)-1H-1,2,3-triazol-4-yl]propyl}-7H-pyrrolo[2,3-d]pyrimidin-4-amine]

Further lines, the compound ahead of its results:

Compound	EC50 [1] [nM]	EC50 [2] [nM]
CCC(c1cn(-c2ccccc2)nn1)n1cc(-c2cncnc2OC)c2c(N)ncnc21 (centres unmarked) [Example 248, 5-(4-Methoxypyrimidin-5-yl)-7-{1-[1-phenyl-1H-1,2,3-triazol-4-yl]propyl}-7H-pyrrolo[2,3-d]pyrimidin-4-amine]	55.4	25.9
COc1ncccc1-c1cn(Cc2cn(-c3ccccc3F)nn2)c2nc(C)nc(N)c12 [Example 202, 7-{[1-(2-Fluorophenyl)-1H-1,2,3-triazol-4-yl]methyl}-5-(2-methoxypyridin-3-yl)-2-methyl-7H-pyrrolo[2,3-d]pyrimidin-4-amine]	798	922
CC(c1cn(-c2ccc(F)cc2F)nn1)n1c(C#N)c(-c2cnc(C(F)(F)F)nc2)c2c(N)ncnc21 (single isomer, unassigned) [Example 11, 4-Amino-7-{1-[1-(2,4-difluorophenyl)-1H-1,2,3-triazol-4-yl]ethyl}-5-[2-(trifluoromethyl)pyrimidin-5-yl]-7H-pyrrolo[2,3-d] pyrimidine-6-carbonitrile]	33.5	19.8
CCC(c1cnn(-c2ccc(F)cc2F)c1)n1c(C#N)c(-c2cnc(C(F)(F)F)nc2)c2c(N)ncnc21 (single isomer, unassigned) [Example 20, 4-Amino-7-{1-[1-(2,4-difluorophenyl)-1H-pyrazol-4-yl]propyl}-5-[2-(trifluoromethyl)pyrimidin-5-yl]-7H-pyrrolo[2,3-d]pyrimidine-6-carbonitrile]	5.48	14.1
COc1ncccc1-c1cn(Cc2nnc(-c3ccccc3F)[nH]2)c2ncnc(N)c12 [Example 253, 7-{[5-(2-Fluorophenyl)-4H-1,2,4-triazol-3-yl]methyl}-5-(2-methoxypyridin-3-yl)-7H-pyrrolo[2,3-d]pyrimidin-4-amine]	1340	719
CCC(c1cn(-c2ccccc2F)nn1)n1cc(-c2cncnc2OC)c2c(N)ncnc21 (single isomer, unassigned; enantiomer 1) [Example 133, (−) 7-{1-[1-(2-Fluorophenyl)-1H-1,2,3-triazol-4-yl]propyl}-5-(4-methoxypyrimidin-5-yl)-7H-pyrrolo[2,3-d]pyrimidin-4-amine, enantiomer 1]	721	918
CCC(c1cn(-c2ccc(F)c(F)c2)nn1)n1c(C#N)c(-c2cnc(C(F)(F)F)nc2)c2c(N)ncnc21 (single isomer, unassigned; enantiomer 1) [Example 322, 4-Amino-7-{1-[1-(3,4-difluorophenyl)-1H-1,2,3-triazol-4-yl]propyl}-5-[2-(trifluoromethyl)pyrimidin-5-yl]-7H-pyrrolo[2,3-d]pyrimidine-6-carbonitrile, enantiomer 1]	33.8	49.9
COc1ncccc1-c1cn(Cc2cn(-c3ccccc3F)nn2)c2ncnc(N)c12 [Example 210, 7-{[1-(2-Fluorophenyl)-1H-1,2,3-triazol-4-yl]methyl}-5-(2-methoxy-pyridin-3-yl)-7H-pyrrolo[2,3-d]pyrimidin-4-amine]	158	123
CCC(c1cn(-c2ccc(F)cc2F)nn1)n1cc(-c2cnc(OC)c(F)c2)c2c(N)ncnc21 (single isomer, unassigned; enantiomer 1) [Example 165, 7-{1-[1-(2,4-Difluorophenyl)-1H-1,2,3-triazol-4-yl]propyl}-5-(5-fluoro-6-methoxypyridin-3-yl)-7H-pyrrolo[2,3-d]pyrimidin-4-amine, enantiomer 1]	247	728
CCC(c1cn(-c2cc(F)ccc2F)nn1)n1cc(-c2cnc(C(F)(F)F)nc2)c2c(N)ncnc21 (single isomer, unassigned) [Example 185, 7-{1-[1-(2,5-difluorophenyl)-1H-1,2,3-triazol-4-yl]propyl}-5-[2-(trifluoromethyl)pyrimidin-5-yl]-7H-pyrrolo[2,3-d]pyrimidin-4-amine]	14.4	34.7
COc1nc(C(F)(F)F)ccc1-c1cn(Cc2cn(-c3ccccc3F)nn2)c2ncnc(N)c12 [Example 206, 7-{[1-(2-fluorophenyl)-1H-1,2,3-triazol-4-yl]methyl}-5-[2-methoxy-6-(trifluoromethyl)pyridin-3-yl]-7H-pyrrolo[2,3-d]pyrimidin-4-amine]	10.8	22.9
CCC(c1cn(-c2ccccc2F)nn1)n1cc(-c2cnc(C(F)(F)F)nc2)c2c(N)ncnc21 (centres unmarked) [Example 224, 7-{1-[1-(2-Fluorophenyl)-1H-1,2,3-triazol-4-yl]propyl}-5-[2-(trifluoromethyl)pyrimidin-5-yl]-7H-pyrrolo[2,3-d] pyrimidin-4-amine]	19	9.04
Nc1ncnc2c1c(-c1cnco1)cn2Cc1cn(-c2ccccc2F)nn1 [Example 197, 7-{[1-(2-Fluorophenyl)-1H-1,2,3-triazol-4-yl]methyl}-5-(1,3-oxazol-5-yl)-7H-pyrrolo[2,3-d]pyrimidin-4-amine]	811	254
CCC(c1cn(-c2ccc(F)cc2F)nn1)n1cc(-c2cncnc2OC)c2c(N)ncnc21 (single isomer, unassigned; enantiomer 1) [Example 159, (+) 7-{1-[1-(2,4-Difluorophenyl)-1H-1,2,3-triazol-4-yl]propyl}-5-(4-methoxypyrimidin-5-yl)-7H-pyrrolo[2,3-d]pyrimidin-4-amine, enantiomer 1]	35.5	18.5
